From ChEMBL document CHEMBL5512696, “Discovery of a Novel ASM Direct Inhibitor with a 1,5-Diphenyl-pyrazole Scaffold and Its Antidepressant Mechanism of Action” (J Med Chem, 2024)
Activity calls are given as the source filed them.

Tests used:
Format in all cases: functional, organism-based
Conditions in all cases: time 2.0 weeks
Mus musculus [1] = test: Antidepressant activity in ICR mouse model of chronic unpredictable mild stress assessed as downregulation of neuronal apoptosis by measuring increase in BDNF protein level in hippocampus at 12 mg/kg, ip administered once a day for 1 week post 8 week of chronic unpredictable mild stress and measured after 1 week by Western blot analysis
Mus musculus [2] = test: (§1) Antidepressant activity in ICR mouse model of chronic unpredictable mild stress assessed as reduction in sphingosine-1-phosphate level in cerebral cortex at 12 mg/kg, ip administered once a day for 1 week post 8 week of chronic unpredictable mild stress and measured after 1 week by ELISA
Mus musculus [3] = test: Antidepressant activity in ICR mouse model of chronic unpredictable mild stress assessed as reduction in sphingosine-1-phosphate level in hippocampus at 12 mg/kg, ip administered once a day for 1 week post 8 week of chronic unpredictable mild stress and measured after 1 week by ELISA
Mus musculus [4] = test: Antidepressant activity in ICR mouse model of chronic unpredictable mild stress assessed as reduction in sphingomyelin level in cerebral cortex at 12 mg/kg, ip administered once a day for 1 week post 8 week of chronic unpredictable mild stress and measured after 1 week by ELISA
Mus musculus [5] = test: as §1, with “oxidative stress by measuring reduction in MDA” for “sphingosine-1-phosphate”
Mus musculus [6] = test: Antineuroinflammatory activity in ICR mouse model of chronic unpredictable mild stress assessed as reduction in TNFalpha level in serum at 12 mg/kg, ip administered once a day for 1 week post 8 week of chronic unpredictable mild stress and measured after 1 week by ELISA
Mus musculus [7] = test: Antineuroinflammatory activity in ICR mouse model of chronic unpredictable mild stress assessed as reduction in IL-1beta level in serum at 12 mg/kg, ip administered once a day for 1 week post 8 week of chronic unpredictable mild stress and measured after 1 week by ELISA
Mus musculus [8] = test: Antineuroinflammatory activity in ICR mouse model of chronic unpredictable mild stress assessed as reduction in IL-6 level in serum at 12 mg/kg, ip administered once a day for 1 week post 8 week of chronic unpredictable mild stress and measured after 1 week by ELISA
Mus musculus [9] = test: In vivo inhibition of ASM in ICR mouse model of chronic unpredictable mild stress assessed as increase in 5-HT uptake in hippocampus at 12 mg/kg, ip administered once a day for 1 week post 8 week of chronic unpredictable mild stress and measured after 1 week by ELISA

CNCCC(Oc1ccc(C(F)(F)F)cc1)c1ccccc1 (centres undefined)
active: Activity (Mus musculus [1]) | Activity (Mus musculus [2]) | Activity (Mus musculus [3]) | Activity (Mus musculus [4]) | Activity (Mus musculus [5]) | Activity (Mus musculus [6]) | Activity (Mus musculus [7]) | Activity (Mus musculus [8]) | inhibition (Mus musculus [9])
